From patent publication EP0326329B1, “Quinazoline derivatives useful as insecticides” (Dow AgroSciences LLC, priority 1988, dated 1989) come the findings set out here.

The first test relates to Twospotted spider mites (Tetranychus urticae Koch). Description: Mite/insect screen, sprayed squash cotyledons (SM). The format is in vivo. Particulars: Tetranychus urticae, percent mortality; spray rate 200 ppm; read-out: SM RESULTS %. An outline of the steps: (§1)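 Water-diluted formulations of each compound (acetone/alcohol 50:50 with 23 g/L and 13 g/L emulsifier blends) are sprayed over both leaf faces to runoff. After a standard exposure period, percent kill and phytotoxicity are recorded.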
In the case of `Oc1cccc(CCOc2ncnc3ccccc23)c1` [Example 111, 4-[2-(3-hydroxyphenyl)ethoxy]quinazoline], the mortality at 200 ppm came to 0%.

Take `COc1ccc(CCOc2ncnc3c(F)cccc23)cc1OC` [Example 112, 8-fluoro-4-[2-(3,4-dimethoxyphenyl)ethoxy]quinazoline]: the mortality at 200 ppm was 0%.

Regarding `CC(C)Cc1ccc(C(C)COc2ncnc3c(F)cccc23)cc1` (stereo not shown) [Example 113, 8-fluoro-4-[2-[4-(2-methylpropyl)phenyl]propoxy]quinazoline], the mortality at 200 ppm was found to be 100%.

As for `Oc1ccccc1CCOc1ncnc2ccccc12` [Example 114, 4-[2-(2-hydroxyphenyl)ethoxy]quinazoline], the mortality at 200 ppm amounted to 0%.

The test is the same for the next values; noted with them: Tetranychus urticae, percent mortality; spray rate 400 ppm; read-out: SM RESULTS %.
On to `Oc1cccc(CCOc2ncnc3ccccc23)c1` [Example 111, 4-[2-(3-hydroxyphenyl)ethoxy]quinazoline], for which the mortality at 400 ppm came to 0%.

For the compound `COc1ccc(CCOc2ncnc3c(F)cccc23)cc1OC` [Example 112, 8-fluoro-4-[2-(3,4-dimethoxyphenyl)ethoxy]quinazoline], the mortality at 400 ppm came out at 0%.

Take `CC(C)Cc1ccc(C(C)COc2ncnc3c(F)cccc23)cc1` (stereo not shown) [Example 113, 8-fluoro-4-[2-[4-(2-methylpropyl)phenyl]propoxy]quinazoline]: the mortality at 400 ppm came out at 0%.

`Oc1ccccc1CCOc1ncnc2ccccc12` [Example 114, 4-[2-(2-hydroxyphenyl)ethoxy]quinazoline]: the mortality at 400 ppm was found to be 0%.

The test system of a further test is Puccinia recondita tritici (leaf rust). The experiment in a line: Greenhouse Test 1, foliar spray fungicide screen (LEAF RUST), host wheat. Conditions: disease control rating, 400 ppm (+++ at 100 ppm). The format is in vivo.
Regarding `Oc1cccc(CCOc2ncnc3ccccc23)c1` [Example 111, 4-[2-(3-hydroxyphenyl)ethoxy]quinazoline], the “LEAF RUST” value is listed as “+ (+ = 20-89% control at 400 ppm)”.

Take `COc1ccc(CCOc2ncnc3c(F)cccc23)cc1OC` [Example 112, 8-fluoro-4-[2-(3,4-dimethoxyphenyl)ethoxy]quinazoline]: the “LEAF RUST” value is listed as “+++ (+++ = 90-100% control at 100 ppm)”.

As to `CC(C)Cc1ccc(C(C)COc2ncnc3c(F)cccc23)cc1` (stereo not shown) [Example 113, 8-fluoro-4-[2-[4-(2-methylpropyl)phenyl]propoxy]quinazoline], the “LEAF RUST” value is “+++ (+++ = 90-100% control at 100 ppm)”.

`Oc1ccccc1CCOc1ncnc2ccccc12` [Example 114, 4-[2-(2-hydroxyphenyl)ethoxy]quinazoline]: the “LEAF RUST” value was “+ (+ = 20-89% control at 400 ppm)”.

For a further test, the system named is Pyricularia oryzae (rice blast).
Test: not given
Type of test: in vivo. Particulars: disease control rating, foliar spray, host rice; 400 ppm (+++ at 100 ppm).
In the case of `Oc1cccc(CCOc2ncnc3ccccc23)c1` [Example 111, 4-[2-(3-hydroxyphenyl)ethoxy]quinazoline], the “RICE BLAST” value is reported as “++ (++ = 90-100% control at 400 ppm)”.

Turning to `COc1ccc(CCOc2ncnc3c(F)cccc23)cc1OC` [Example 112, 8-fluoro-4-[2-(3,4-dimethoxyphenyl)ethoxy]quinazoline], the “RICE BLAST” value is “+++ (+++ = 90-100% control at 100 ppm)”.

As for `CC(C)Cc1ccc(C(C)COc2ncnc3c(F)cccc23)cc1` (stereo not shown) [Example 113, 8-fluoro-4-[2-[4-(2-methylpropyl)phenyl]propoxy]quinazoline], the “RICE BLAST” value is “+++ (+++ = 90-100% control at 100 ppm)”.

With `Oc1ccccc1CCOc1ncnc2ccccc12` [Example 114, 4-[2-(2-hydroxyphenyl)ethoxy]quinazoline], the “RICE BLAST” value is “- (- = 0-19% control at 400 ppm)”.

The test system of a further test is Erysiphe graminis tritici (powdery mildew). Description: Greenhouse Test 1, foliar spray fungicide screen (POWD MDEW), host wheat. Particulars: disease control rating, 400 ppm (+++ at 100 ppm). The format is in vivo.
For the compound `Oc1cccc(CCOc2ncnc3ccccc23)c1` [Example 111, 4-[2-(3-hydroxyphenyl)ethoxy]quinazoline], the “POWD MDEW” value is “- (- = 0-19% control at 400 ppm)”.

Regarding `COc1ccc(CCOc2ncnc3c(F)cccc23)cc1OC` [Example 112, 8-fluoro-4-[2-(3,4-dimethoxyphenyl)ethoxy]quinazoline], the “POWD MDEW” value was “+ (+ = 20-89% control at 400 ppm)”.

For the compound `CC(C)Cc1ccc(C(C)COc2ncnc3c(F)cccc23)cc1` (stereo not shown) [Example 113, 8-fluoro-4-[2-[4-(2-methylpropyl)phenyl]propoxy]quinazoline], the “POWD MDEW” value is recorded as “+ (+ = 20-89% control at 400 ppm)”.

On to `Oc1ccccc1CCOc1ncnc2ccccc12` [Example 114, 4-[2-(2-hydroxyphenyl)ethoxy]quinazoline], for which the “POWD MDEW” value is on record as “- (- = 0-19% control at 400 ppm)”.

The next test relates to melon aphids (Aphis gossypii Glover). Description: Mite/insect screen, sprayed squash cotyledons (MA). Particulars: Aphis gossypii, percent mortality; spray rate 200 ppm; read-out: MA RESULTS %. Type of test: in vivo. An outline of the steps:
as §1
On to `Oc1cccc(CCOc2ncnc3ccccc23)c1` [Example 111, 4-[2-(3-hydroxyphenyl)ethoxy]quinazoline], for which the mortality at 200 ppm was found to be 0%.

`COc1ccc(CCOc2ncnc3c(F)cccc23)cc1OC` [Example 112, 8-fluoro-4-[2-(3,4-dimethoxyphenyl)ethoxy]quinazoline]: the mortality at 200 ppm turned out to be 80%.

In the case of `CC(C)Cc1ccc(C(C)COc2ncnc3c(F)cccc23)cc1` (stereo not shown) [Example 113, 8-fluoro-4-[2-[4-(2-methylpropyl)phenyl]propoxy]quinazoline], the mortality at 200 ppm was 100%.

As for `Oc1ccccc1CCOc1ncnc2ccccc12` [Example 114, 4-[2-(2-hydroxyphenyl)ethoxy]quinazoline], the mortality at 200 ppm worked out at 60%.

Staying with this test, now noted: Aphis gossypii, percent mortality; spray rate 400 ppm; read-out: MA RESULTS %.
In the case of `Oc1cccc(CCOc2ncnc3ccccc23)c1` [Example 111, 4-[2-(3-hydroxyphenyl)ethoxy]quinazoline], the mortality at 400 ppm was found to be 0%.

For `COc1ccc(CCOc2ncnc3c(F)cccc23)cc1OC` [Example 112, 8-fluoro-4-[2-(3,4-dimethoxyphenyl)ethoxy]quinazoline], the mortality at 400 ppm amounted to 0%.

On to `CC(C)Cc1ccc(C(C)COc2ncnc3c(F)cccc23)cc1` (stereo not shown) [Example 113, 8-fluoro-4-[2-[4-(2-methylpropyl)phenyl]propoxy]quinazoline], for which the mortality at 400 ppm was determined as 0%.

`Oc1ccccc1CCOc1ncnc2ccccc12` [Example 114, 4-[2-(2-hydroxyphenyl)ethoxy]quinazoline]: the mortality at 400 ppm worked out at 0%.

For the next test, the system named is Botrytis cinerea (gray mold). The experiment in a line: Greenhouse Test 1, foliar spray fungicide screen (GRAY MOLD), host grape berries. The format is in vivo. Conditions: disease control rating, 400 ppm (+++ at 100 ppm).
With `Oc1cccc(CCOc2ncnc3ccccc23)c1` [Example 111, 4-[2-(3-hydroxyphenyl)ethoxy]quinazoline], the “GRAY MOLD” value is listed as “- (- = 0-19% control at 400 ppm)”.

For `COc1ccc(CCOc2ncnc3c(F)cccc23)cc1OC` [Example 112, 8-fluoro-4-[2-(3,4-dimethoxyphenyl)ethoxy]quinazoline], the “GRAY MOLD” value was “- (- = 0-19% control at 400 ppm)”.

As for `CC(C)Cc1ccc(C(C)COc2ncnc3c(F)cccc23)cc1` (stereo not shown) [Example 113, 8-fluoro-4-[2-[4-(2-methylpropyl)phenyl]propoxy]quinazoline], the “GRAY MOLD” value is recorded as “- (- = 0-19% control at 400 ppm)”.

Consider `Oc1ccccc1CCOc1ncnc2ccccc12` [Example 114, 4-[2-(2-hydroxyphenyl)ethoxy]quinazoline], for which the “GRAY MOLD” value is “- (- = 0-19% control at 400 ppm)”.

The next test relates to southern armyworm (Spodopetra eridania Cramer). The experiment in a line: Mite/insect screen, sprayed squash leaves (SAW). The format is in vivo. Particulars: Spodoptera eridania, percent mortality; spray rate 200 ppm; read-out: SAW RESULTS %. Put shortly:
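Compounds were dissolved in 50:50 acetone/alcohol containing sulfonate/nonionic emulsifier blends (23 g and 13 g per liter) and diluted with water to test concentrations. Leaves were sprayed on both surfaces to runoff and dried for one hour. Percent mortality and phytotoxicity were scored after standard exposure periods.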
As for `Oc1cccc(CCOc2ncnc3ccccc23)c1` [Example 111, 4-[2-(3-hydroxyphenyl)ethoxy]quinazoline], the mortality at 200 ppm amounted to 0%.

Regarding `COc1ccc(CCOc2ncnc3c(F)cccc23)cc1OC` [Example 112, 8-fluoro-4-[2-(3,4-dimethoxyphenyl)ethoxy]quinazoline], the mortality at 200 ppm was 0%.

Consider `CC(C)Cc1ccc(C(C)COc2ncnc3c(F)cccc23)cc1` (stereo not shown) [Example 113, 8-fluoro-4-[2-[4-(2-methylpropyl)phenyl]propoxy]quinazoline], for which the mortality at 200 ppm is 0%.

Regarding `Oc1ccccc1CCOc1ncnc2ccccc12` [Example 114, 4-[2-(2-hydroxyphenyl)ethoxy]quinazoline], the mortality at 200 ppm stood at 0%.

The same test, now with this note: Spodoptera eridania, percent mortality; spray rate 400 ppm; read-out: SAW RESULTS %.
Regarding `Oc1cccc(CCOc2ncnc3ccccc23)c1` [Example 111, 4-[2-(3-hydroxyphenyl)ethoxy]quinazoline], the mortality at 400 ppm is 0%.

Turning to `COc1ccc(CCOc2ncnc3c(F)cccc23)cc1OC` [Example 112, 8-fluoro-4-[2-(3,4-dimethoxyphenyl)ethoxy]quinazoline], the mortality at 400 ppm came to 0%.

In the case of `CC(C)Cc1ccc(C(C)COc2ncnc3c(F)cccc23)cc1` (stereo not shown) [Example 113, 8-fluoro-4-[2-[4-(2-methylpropyl)phenyl]propoxy]quinazoline], the mortality at 400 ppm came out at 40%.

Take `Oc1ccccc1CCOc1ncnc2ccccc12` [Example 114, 4-[2-(2-hydroxyphenyl)ethoxy]quinazoline]: the mortality at 400 ppm was 0%.

The next test has as its system Southern corn rootworm (Diabrotica undecimpuctata howardi Barber). The experiment in a line: Mite/insect screen, soil treatment (CRW). Conditions: Diabrotica; percent mortality; soil treatment, CRW rate 12.00 ppm; read-out: CRW RESULTS %. Type of test: in vivo. An outline of the steps: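 Compounds dissolved in acetone/alcohol (50:50) with Toximul R/S emulsifiers, diluted with water. Soil (15 g, with presoaked corn seed) treated with 1 mL test solution, dried 6–12 h, then five 2–3 instar larvae added; held at 23°C. Percent mortality and phytotoxicity scored after standard exposure periods.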
For the compound `Oc1cccc(CCOc2ncnc3ccccc23)c1` [Example 111, 4-[2-(3-hydroxyphenyl)ethoxy]quinazoline], the mortality at 12 ppm stood at 0%.

Regarding `COc1ccc(CCOc2ncnc3c(F)cccc23)cc1OC` [Example 112, 8-fluoro-4-[2-(3,4-dimethoxyphenyl)ethoxy]quinazoline], the mortality at 12 ppm is 0%.

As for `CC(C)Cc1ccc(C(C)COc2ncnc3c(F)cccc23)cc1` (stereo not shown) [Example 113, 8-fluoro-4-[2-[4-(2-methylpropyl)phenyl]propoxy]quinazoline], the mortality at 12 ppm stood at 0%.

Take `Oc1ccccc1CCOc1ncnc2ccccc12` [Example 114, 4-[2-(2-hydroxyphenyl)ethoxy]quinazoline]: the mortality at 12 ppm came to 0%.

The same test, now with this note: Diabrotica; percent mortality; soil treatment, CRW rate 24.00 ppm; read-out: CRW RESULTS %.
As for `Oc1cccc(CCOc2ncnc3ccccc23)c1` [Example 111, 4-[2-(3-hydroxyphenyl)ethoxy]quinazoline], the mortality at 24 ppm was 0%.

For the compound `COc1ccc(CCOc2ncnc3c(F)cccc23)cc1OC` [Example 112, 8-fluoro-4-[2-(3,4-dimethoxyphenyl)ethoxy]quinazoline], the mortality at 24 ppm came out at 0%.

Turning to `CC(C)Cc1ccc(C(C)COc2ncnc3c(F)cccc23)cc1` (stereo not shown) [Example 113, 8-fluoro-4-[2-[4-(2-methylpropyl)phenyl]propoxy]quinazoline], the mortality at 24 ppm came out at 0%.

With `Oc1ccccc1CCOc1ncnc2ccccc12` [Example 114, 4-[2-(2-hydroxyphenyl)ethoxy]quinazoline], the mortality at 24 ppm is 0%.

The test system of a further test is Pseudoperonospora cubensis (downy mildew). Description: Greenhouse Test 1, foliar spray fungicide screen (DOWN MDEW), host squash. Conditions: disease control rating, 400 ppm (+++ at 100 ppm). Type of test: in vivo.
Regarding `Oc1cccc(CCOc2ncnc3ccccc23)c1` [Example 111, 4-[2-(3-hydroxyphenyl)ethoxy]quinazoline], the “DOWN MDEW” value is “+ (+ = 20-89% control at 400 ppm)”.

`COc1ccc(CCOc2ncnc3c(F)cccc23)cc1OC` [Example 112, 8-fluoro-4-[2-(3,4-dimethoxyphenyl)ethoxy]quinazoline]: the “DOWN MDEW” value was “+++ (+++ = 90-100% control at 100 ppm)”.

For `CC(C)Cc1ccc(C(C)COc2ncnc3c(F)cccc23)cc1` (stereo not shown) [Example 113, 8-fluoro-4-[2-[4-(2-methylpropyl)phenyl]propoxy]quinazoline], the “DOWN MDEW” value was “+++ (+++ = 90-100% control at 100 ppm)”.

Turning to `Oc1ccccc1CCOc1ncnc2ccccc12` [Example 114, 4-[2-(2-hydroxyphenyl)ethoxy]quinazoline], the “DOWN MDEW” value is given as “+ (+ = 20-89% control at 400 ppm)”.
